# “And” between values parts separate entries of the source, which are not always exact repeats. Equal values may be shown once.
# Experiments:
# [1] = tested on: Herpes simplex type 2 (HSV-2) strain MS; details: monkey, vero cells
# [2] = tested on: Herpes simplex type 2 (HSV-2) strain MS; assay: CPE inhibition assay, HSV-2 (MS) in Vero cells
# [3] = tested on: African green monkey kidney (Vero) cells; assay: Drug cytotoxicity in Vero host cells (CPE assay); details: Vero
# HSV-1 (E-377) = assay: Plaque reduction in Vero cells, HSV-1 (E-377); format: cell-based, Herpes simplex virus type 1; details: Human alphaherpesvirus 1, read-out: MIC50
# Protocol: (§1) A-2. Alternate Method for Evaluation of Compounds for Activity Against Herpes Simplex Virus Types 1 and 2
# (§2) Confluent Vero cell monolayers were infected with a dilution of stock virus which yielded approximately 100 plaque forming units (pfu) per well. After the adsorption period, the infected cell monolayers were treated in duplicate with serial dilutions of the test compound. Duplicate cell controls containing medium alone and virus controls containing medium and virus were run simultaneously with the test compound. After incubation for 3 to 4 days to allow for the development of visible, discrete plaques in the untreated, virus infected control cultures, the monolayers were fixed with formaldehyde and stained with crystal violet. Plaques visible to the unaided eye were counted and the mean number of plaques in the duplicate wells for each compound concentration tested and for the untreated, virus infected controls were determined. The concentration of test compound which reduced by 50% the mean number of plaques in the untreated, virus infected control cultures was then determined and expressed as the ID50.
# HSV-1 (123) = assay: Plaque reduction in Vero cells, HSV-1 (123); format: cell-based, Herpes simplex virus type 1; details: Human alphaherpesvirus 1, read-out: MIC50
# Protocol: as §1, §2
# HSV-2 = assay: Plaque reduction in Vero cells, HSV-2; format: cell-based, Herpes simplex virus type 2; details: Human alphaherpesvirus 2, HSV-2, Vero, read-out: MIC50
# Protocol: as §1, §2
# [4] = tested on: Herpesvirus 1 (strain 123); assay: In vivo activity against Herpesvirus 1 in mice (intraperitoneal challenge); design: species or system Swiss mice (CD-1)
# Protocol: E. Evaluation of Compounds for In Vivo Activity Against Herpesvirus 1 in Mice
# (§3) Four-week-old female outbred Swiss mice (CD-1, VAF+, Charles River Labs) were housed 5 per Microisolator® cage. Feed and water were supplied ad libitum. Fifteen mice were randomly assigned to each of the following treatment groups:
# (§4) Test compounds were diluted in 0.4% caboxymethylcellulose (CMC) prepared in phosphate buffered saline (PBS) at aconcentrations consistent with dosing at 0.1 ml per 10 g of body weight. Compounds were administered subcutaneously once daily for a total of 7 doses. Five mice in each treatment group served as uninfected toxicity controls. The remaining ten mice in each group were challenged intraperitoneally with an LD90 dose of the twelfth in vivo passage of Herpesvirus 1 (strain 123). Virus challenge was administered two hours after the first dose of compound was given. Mortality was monitored daily for 21 days. The mortality rates, average day of death, geometric mean time to death and virus rating were calculated for each treatment group.
# [5] = Toxicity in uninfected mice; format: in vivo, Swiss mice (CD-1); details: subcutaneous once daily, 7 doses
# Protocol: as §3, §4
# [6] = tested on: duck hepatitis B virus (DHBV); assay: Efficacy against hepatitis B virus in vivo in ducklings; design: species or system Pekino ducklings; details: for Serum DHBV DNA: after treatment (days 10-17)
# Protocol: F. Evaluation of Compounds for Efficacy Against Hepatitis B Virus In Vivo in Ducklings
# The test method is an adaptation of the method of Smee, et al., Antimicrob. Agents Chemotherap. 27 277 (1985). The serum level of duck hepatitis B virus (DHBV) DNA was monitored in 6 infected Pekino ducklings from age 6 days to age 27 days. Four ducklings were treated with 70 mg/kg/day IP, b.i.d. of the test compound as a 3 mg/ml solution in 0.9% aqueous NaCl on days 10-17. Two control ducklings were treated with 23 ml/kg/day IP, b.i.d. of 0.9% aqueous NaCl on days 10-17. The level of DHBV DNA in the duckling serum was measured daily.
# [7] = tested on: Varicella-Zoster Virus (clinical isolate DM625); assay: microbe, parasite or virus in culture; format: cell-based; details: Human alphaherpesvirus 3, Fibroblast, 120 h; read-out: MIC50
# [8] = tested on: Herpes simplex type 1 (HSV-1) strain E-377; assay: CPE inhibition assay, HSV-1 (E-377) in Vero cells; details: for VR (virus rating): HSV-1 (E-377), Vero
# [9] = tested on: human foreskin fibroblasts (HFF); assay: MTT cytotoxicity assay in human foreskin fibroblasts
# [10] = tested on: Herpes simplex type 1 (HSV-1) strain E-377; details: monkey, vero cells
# [11] = Drug cytotoxicity in Vero host cells (CPE assay); details: monkey, vero cells
compound,measurement,setting,value
"Nc1ncnc2c1ncn2C1CC(CO)C1CO (stereo not shown) [Example 4C, 9-(2',3'-Bis(hydroxymethyl)cyclobutyl)adenine]","TI: therapeutic index, minimum cytotoxic drug concentration / ID50",[1],5.5
same,VR (virus rating),[2],1.8
same,MTC: minimum drug concentration causing any cytotoxicity,[3]; HSV-1 (E-377) assay,32 µg/mL
same,MTC: minimum drug concentration causing any cytotoxicity,[3]; HSV-2 (MS) assay,100 µg/mL
"Nc1nc2c(ncn2C2CC(CO)C2CO)c(=O)[nH]1 (stereo not shown) [Example 1I, 9-(2',3'-Bis(hydroxymethyl)cyclobutyl)guanine]",IC50,HSV-1 (E-377),0.5 mg/L
same,IC50,HSV-1 (123),1 mg/L
same,IC50,HSV-2,1 mg/L
same,VR (virus rating) = GMTD of experimental/GMTD of diluent treated control,[4]; 3.2 mg/kg,1.3
same,VR (virus rating) = GMTD of experimental/GMTD of diluent treated control,[4]; 10 mg/kg,1.6
same,VR (virus rating) = GMTD of experimental/GMTD of diluent treated control,[4]; 32 mg/kg,2.5
same,No. Dead/No. Uninfected,[5]; 3.2 mg/kg,0/5
same,No. Dead/No. Uninfected,[5]; 10 mg/kg,0/5
same,No. Dead/No. Uninfected,[5]; 32 mg/kg,0/3
same,Deaths of treated ducks,"[6]; DHBV-infected ducklings, 70 mg/kg/day IP b.i.d. on days 10-17","ducks 3 and 4 died on day 18 and day 26, respectively"
same,Serum DHBV DNA,"[6]; age 18 days, lines = ducks 1-4 in order",< 1 ng/mL
same,Serum DHBV DNA,"[6]; age 19 days, lines = ducks 1, 2, 4",< 1 ng/mL
same,Serum DHBV DNA,"[6]; age 20 days, lines = ducks 1, 2, 4",< 1 ng/mL
same,Serum DHBV DNA,"[6]; age 21 days, lines = ducks 1, 2, 4",< 1 ng/mL
same,IC50,[7],1.4 mg/L
same,VR (virus rating),[2],4.1 and 3.4
same,VR (virus rating),[8],5.7 and 5.1
same,MTT Assay,[9]; 3.2 ug/ml,79 % of control
same,MTT Assay,[9]; 10 ug/ml,76 % of control
same,MTT Assay,[9]; 32 ug/ml,72 % of control
same,MTT Assay,[9]; 100 ug/ml,62 % of control
"Nc1nc2c(ncn2C2CC(CO)C2)c(=O)[nH]1 (stereo not shown) [Example 5G, 9-(3'-(Hydroxymethyl)cyclobutyl)guanine]","TI: therapeutic index, minimum cytotoxic drug concentration / ID50",[10],> 2.2
same,"TI: therapeutic index, minimum cytotoxic drug concentration / ID50",[1],> 1.0
same,VR (virus rating),[2],0.9
same,VR (virus rating),[8],2.1
same,IC50,"[8]; Human alphaherpesvirus 1, Vero, read-out: ID50: minimum drug concentration that inhibited the CPE by 50%",146 mg/L
same,MCC,[11],> 320 µg/mL
same,MTC: minimum drug concentration causing any cytotoxicity,[3]; HSV-2 (MS) assay,> 320 µg/mL
"Nc1nc2c(ncn2C2CC(CO)C2O)c(=O)[nH]1 (stereo not shown) [Example 42P, 9-(2'-hydroxy-3'-hydroxymethyl-1'-cyclobutyl)guanine]",IC50,HSV-1 (E-377),1 mg/L
same,IC50,HSV-1 (123),3 mg/L
same,IC50,HSV-2,1 mg/L
"Nc1nc(Cl)c2ncn(C3CC(CO)C3CO)c2n1 (stereo not shown) [Example 1H, 3-(2'-Amino-6'-chloro-9'H-purin-9'-yl)-1,2-bis(hydroxymethyl)cyclobutane]",VR (virus rating),[2],0.6 and 0.5
same,VR (virus rating),[8],1.4
